The test system of one experiment is mitochondrial ROS. In words: MitoSOX assay of mitochondrial ROS. The class given is cell-based. How it is done:
(§1) Dihydrorhodamine 123 (DHR; Thermo Fisher Scientific, Waltham, MA, USA) was used to label cellular ROS detected by flow cytometry, and the MitoSOX reagent (Thermo Fisher Scientific) was used to label mitochondrial ROS [55].
Thus, the ability of compound 7 to disturb redox homeostasis in TMZ-resistant cells and attain amplified therapeutic efficacy for GBM was evaluated. In both Pt3 and Pt3R cells, treatment with compound 7 for 48 h increased the ROS level (FIG. 7A). […] Moreover, it was also observed that compound 7 increased mitochondria-derived ROS.
(§2) Treatment concentration of MPT1A059 was indicated.

Experiment [1] has as its system Pt3R cells. In words: Cell viability / cytotoxicity of TMZ-resistant Pt3R cells (CCK8). The class given is cell-based, human.
For experiment [2], the system named is Pt3R cells. In words: Cellular ROS assay (DHR, flow cytometry) in Pt3R cells. In kind it is cell-based, human. To be noted: 48 h, FIG. 7A.
From the text: as §1, §2
(In general: In flow cytometry, cells or beads pass a laser one at a time.)

A further experiment relates to Pt3R tumors. In words: Growth of TMZ-resistant Pt3R tumors in mice. The class given is in vivo, NOD.CB17-Prkdc^scid/NCrCrl mice. To be noted: 5 mg/kg twice weekly. As to the method: NOD.CB17-Prkdc^scid/NCrCrl mice (8-week-old) were purchased from BioLASCO Taiwan Co., Ltd. (Taipei, Taiwan). Pt3R cells (1×10^6) in […] DMEM were injected onto the backs of mice. After 10 days, tumor was touchable. Mice were injected with DMSO (the control group) or MPT1A059 (5 mg/kg) twice per week.
In-vivo anti-GBM efficacy of compound 7 was also evaluated in this study. For the in-vivo study, experimental NOD.CB17-Prkdc^scid/NCrCrl mice (8-week-old) were used and Pt3R cells (1×10^6) in […] DMEM were injected into the backs of mice. After 10 days, the tumor was detectable. Mice were injected with DMSO (the control group) or compound 7 (5 mg/kg) twice weekly. […] In a nutshell, the outcome of the in-vivo study ascertains that the remarkable in vitro anti-GBM activity profile of dual inhibitor 7 was translated to the in-vivo potential.

Results on one compound are retold here after US20260365637A1, “DUAL EZH2-HSP90 INHIBITORS” (TAIPEI MEDICAL UNIVERSITY, priority 2023, published 2026).

As a reminder, the IC50 is the concentration needed to halve the response being measured.

“Also recorded” adds a separate entry of the source.

Turning to `CCN(c1cc(-c2cccc(N(C)C(=O)c3cc(C(C)C)c(O)cc3O)c2)cc(C(=O)NCc2c(C)cc(C)[nH]c2=O)c1C)C1CCOCC1` [Compound 7, 3′-(2,4-dihydroxy-5-isopropyl-N-methylbenzamido)-N-((4,6-dimethyl-2-oxo-1,2-dihydropyridin-3-yl)methyl)-5-(ethyl(tetrahydro-2H-pyran-4-yl)amino)-4-methyl-[1,1′-biphenyl]-3-carboxamide], in the experiment with mitochondrial ROS, the “mitochondria-derived ROS” value is reported as “increased”. In addition, in the experiment with mitochondrial ROS (FIG. 7C), the “MitoSOX red signal representing ROS produced from mitochondria” value was “remarkably enhanced”. Further, the “cell growth / viability inhibitory effect in words” value in the experiment with Pt3R cells [1] was “the only ones to exert cell viability inhibitory potential; also recorded: the most effective against the Pt3R cell lines”. Moreover, the IC50 in the experiment on Pt3R cells [1] (read-out: Cell growth inhibitory effect IC50) stood at 1.01 µM. Moreover, in the experiment on Pt3R cells [2], the ROS level entry is given as “increased”. Also, the “tumor size and weight compared to DMSO-treated mice” value in the experiment on Pt3R tumors (FIG. 8A) is “significantly smaller sizes and weights”. Besides, the tumor growth entry in the experiment on Pt3R tumors (FIG. 8B) is given as “tumor growth suppression ability”.
